What all share (experiment): NCI tumour cell line growth inhibition, 48 h
The test system of experiment [1] is A498.
Experiment [2] relates to A549.
In experiment [3] the test system is COLO 205.
In experiment [4] the test system is DU-145.
Experiment [5] concerns HOP-92.
The subject of experiment [6] is MCF7.
The subject of experiment [7] is MDA-MB-231.
Experiment [8] deals with MDA-MB-435.
Experiment [9] relates to MOLT-4.
The subject of experiment [10] is SF-295.
For experiment [11], the system named is SF-539.
Experiment [12] has as its system SK-MEL-2.
Experiment [13] relates to SNB-19.
The subject of experiment [14] is SNB-75.
Experiment [15] has as its system T47D.
Experiment [16] deals with TK-10.
In experiment [17] the test system is U-251.
Experiment [18] concerns UACC-257.
Experiment [19] relates to UO-31.
Experiment [20] has as its system NCI-H226.

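All cell lines were grown in 96-well plates and treated with compound for 48 hours. GI50 marks 50% less growth.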 Activity calls are given as the source filed them. No stated cut-off is given here; in the data, active = GI50 up to about 1.1 µM and inactive = higher. Where only a bound is given, the exact number is not on record here.

Take `CN(C)Cc1cc(C(=O)/C=C/c2ccc(/C=C/C(=O)c3cc(CN(C)C)c(O)c(CN(C)C)c3)cc2)cc(CN(C)C)c1O`: the GI50 in experiment [1] is 57.9 µM (inactive); in experiment [2] it was 43 µM (inactive); in experiment [3], 14.4 µM (inactive); in experiment [4], 38.5 µM (inactive); in experiment [5], 24.2 µM (inactive); in experiment [6], 9.42 µM (inactive). Besides, the GI50 in experiment [7] is 20.3 µM (inactive); in experiment [8], 24 µM (inactive); in experiment [9], 12.7 µM (inactive); in [10] it was 29.2 µM (inactive); in experiment [11], 24.4 µM (inactive); in [12] it was 20.2 µM (inactive). Also, the GI50 is > 100 µM (inactive) in experiment [13]; > 100 µM (inactive) in experiment [14]; > 100 µM (inactive) in experiment [15]; 36.8 µM (inactive) in experiment [16]; 15.6 µM (inactive) in [17]; 24.8 µM (inactive) in experiment [18]. In addition, in experiment [19], the GI50 was 71.8 µM (inactive).
Turning to `Cc1nn(C(=O)Cc2ccccc2)c2c1C(c1ccccc1[N+](=O)[O-])SC(=N)N2` (stereo not drawn), the GI50 in experiment [1], in experiment [2], in experiment [3], in [4], in experiment [6] and in experiment [7] was > 100 µM (inactive) in each case. For the same molecule, the GI50 in [8], in [9], in experiment [20], in [10], in experiment [11] and in experiment [13] was > 100 µM (inactive) in each case. For the same molecule, the GI50 in experiment [14] was 83.4 µM (inactive); in experiment [15], > 100 µM (inactive); in experiment [16], > 100 µM (inactive); in experiment [18] it was > 100 µM (inactive); in experiment [19], > 100 µM (inactive).
For the molecule `O=C(O)CSc1n[nH]c(=O)[nH]c1=O`, the GI50 in experiment [1], in experiment [2], in experiment [3], in experiment [4], in experiment [6] and in experiment [7] was > 100 µM (inactive) each time. Moreover, the GI50 in experiment [8], in experiment [9], in experiment [20], in [10], in experiment [11] and in [12] was > 100 µM (inactive) throughout. The GI50 in [13], in experiment [14], in experiment [15], in [17] and in experiment [19] was > 100 µM (inactive) in each case.
Turning to `O=C(/C=C1\N=C(c2ccccc2)N(c2ccc3c(c2)Sc2cc(N4C(=O)/C(=C/C(=O)/C=C/c5ccccc5)N=C4c4ccccc4)ccc2N3)C1=O)/C=C/c1ccccc1`, the GI50 in experiment [1] was 27.9 µM (inactive); in experiment [2], > 100 µM (inactive); in [3], > 100 µM (inactive); in [4] it was > 100 µM (inactive); in [5], 67.5 µM (inactive); in [6], 23.9 µM (inactive). Moreover, the GI50 in experiment [7] was 38 µM (inactive); in experiment [8], 22 µM (inactive); in experiment [9], 41.4 µM (inactive); in experiment [10], 23.4 µM (inactive); in [12], 18.4 µM (inactive); in experiment [13], 29.7 µM (inactive). Further, the GI50 was 17.3 µM (inactive) in experiment [14]; 63.7 µM (inactive) in experiment [15]; 45.1 µM (inactive) in experiment [16]; 24.2 µM (inactive) in [17]; 27.4 µM (inactive) in experiment [18]; 81.1 µM (inactive) in experiment [19].
Consider `[O-]c1c2cc(-[n+]3c(-c4ccccc4)cc(-c4ccccc4)cc3-c3ccccc3)cc1CO[C@@H](c1ccccc1)[C@H](c1ccccc1)OCc1cccc(n1)CO[C@@H](c1ccccc1)[C@H](c1ccccc1)OC2`, for which the GI50 in experiment [1] is 0.867 µM (active); in experiment [2] it was 0.0536 µM (active); in experiment [3], 0.0259 µM (active); in experiment [4], 0.326 µM (active); in experiment [5] it was 0.0322 µM (active); in experiment [6], 0.0388 µM (active). In addition, the GI50 in experiment [7] is 0.16 µM (active); in [8] it was 0.0501 µM (active); in [9], 0.0526 µM (active); in [10], 0.102 µM (active); in experiment [11], 0.371 µM (active); in experiment [12], 0.0569 µM (active). In addition, the GI50 was 0.0514 µM (active) in experiment [13]; 0.0682 µM (active) in experiment [14]; 0.111 µM (active) in experiment [15]; 0.594 µM (active) in experiment [16]; 0.0285 µM (active) in experiment [17]; 0.0803 µM (active) in [18]. For the same molecule, the GI50 in [19] was 0.625 µM (active).
As to `CCCCCCNC(=O)c1cc(NCc2cc(OC)ccc2OC)ccc1O`, the GI50 in experiment [2] was 29.6 µM (inactive); in experiment [3], 19 µM (inactive); in experiment [4] it was 24.2 µM (inactive); in experiment [5], 6.98 µM (inactive); in experiment [6], 22.1 µM (inactive); in experiment [7], 18.7 µM (inactive). In addition, the GI50 is 18.9 µM (inactive) in experiment [8]; 25.7 µM (inactive) in [9]; 20 µM (inactive) in experiment [20]; 12 µM (inactive) in experiment [10]; 18.5 µM (inactive) in experiment [11]; 21.7 µM (inactive) in experiment [12]. For the same molecule, the GI50 in [13] is 33 µM (inactive); in experiment [14] it was 26.1 µM (inactive); in experiment [15] it was 13.5 µM (inactive); in experiment [16], 42.6 µM (inactive); in experiment [17] it was 17.9 µM (inactive); in experiment [18], 16.9 µM (inactive). The GI50 in [19] was 17.7 µM (inactive).
As for `CCOC(=O)c1c(NC(=O)c2ccccc2)c(C#N)c2n1CCCCC2`, the GI50 in experiment [2], in experiment [3], in [4], in experiment [5], in [6] and in experiment [7] was > 100 µM (inactive) throughout. The GI50 in experiment [8], in experiment [9], in experiment [20], in experiment [10], in [13] and in [14] was > 100 µM (inactive) in each case. Further, the GI50 in experiment [15], in experiment [16], in experiment [17], in experiment [18] and in experiment [19] was > 100 µM (inactive) each time.
Consider `Cc1ccc(CC(=O)Nc2ccc(NC(=O)/C=C/NC(=O)/C=C/c3ccc(-c4ccccc4)cc3)cc2C(=O)c2ccccc2)cc1`, for which the GI50 in experiment [1] was 2.31 µM (inactive); in [2], 1.77 µM (inactive); in experiment [3] it was 1.75 µM (inactive); in [4] it was 3.94 µM (inactive); in experiment [6], 1.72 µM (inactive); in experiment [7], 1.87 µM (inactive). Besides, the GI50 in experiment [8] is 3.27 µM (inactive); in experiment [9] it was 4.17 µM (inactive); in experiment [20] it was 2.42 µM (inactive); in experiment [10], 1.36 µM (inactive); in [11], 1.67 µM (inactive); in experiment [12], 1.89 µM (inactive). Further, the GI50 in experiment [13] is 3.05 µM (inactive); in [14], 1.93 µM (inactive); in experiment [15], 2.84 µM (inactive); in experiment [16], 2.78 µM (inactive); in experiment [17], 1.85 µM (inactive); in experiment [18], 2.05 µM (inactive). The GI50 in experiment [19] is 3.67 µM (inactive).
Take `O=C(O)CNC(=O)CO/N=C1/C(=C2/C(=O)Nc3ccccc32)Nc2ccccc21`: the GI50 in [2] is 86.5 µM (inactive); in experiment [3], 46.2 µM (inactive); in [4], > 100 µM (inactive); in experiment [5], > 100 µM (inactive); in [6], 72.4 µM (inactive); in [7] it was > 100 µM (inactive). Also, the GI50 is > 100 µM (inactive) in [8]; 70.3 µM (inactive) in experiment [9]; > 100 µM (inactive) in experiment [20]; > 100 µM (inactive) in experiment [10]; > 100 µM (inactive) in experiment [11]; > 100 µM (inactive) in experiment [12]. For the same molecule, the GI50 in experiment [13] is 70.5 µM (inactive); in experiment [14], > 100 µM (inactive); in experiment [15] it was 56.9 µM (inactive); in experiment [16], > 100 µM (inactive); in experiment [17] it was > 100 µM (inactive); in experiment [18], > 100 µM (inactive). Besides, the GI50 in [19] was 26.5 µM (inactive).
With `C[N+](C)(C)[BH-](Br)C(O)O` (stereo not drawn), the GI50 in experiment [1], in experiment [2], in experiment [3], in experiment [4], in experiment [5] and in experiment [6] was > 100 µM (inactive) throughout. Further, the GI50 in experiment [7], in experiment [8], in experiment [9], in experiment [10], in experiment [11] and in experiment [12] was > 100 µM (inactive) in each case. The GI50 in [13] was > 100 µM (inactive); in [14] it was 40.6 µM (inactive); in experiment [15], > 100 µM (inactive); in experiment [16] it was > 100 µM (inactive); in experiment [17], > 100 µM (inactive); in experiment [18] it was > 100 µM (inactive). Further, the GI50 in experiment [19] is > 100 µM (inactive).

For the origin of these results see ChEMBL document CHEMBL1201862, “PubChem BioAssay data set” (2004).
